# How the values were obtained:
# [1] = system: human non-small cell lung cancer (A549); experiment: Antitumor activity (growth inhibition, cytotoxic IC50) against A549; type: cell-based; details: for inhibition at 100 µg/mL: 100 μg/mL, read-out: growth inhibition percentage
# [2] = system: colorectal carcinoma (HCT116); experiment: Antitumor activity (growth inhibition) against HCT116; type: cell-based; details: Homo sapiens, HCT-116, 100 μg/mL, read-out: growth inhibition percentage
# prostate cancer (PC3) = experiment: Antitumor activity (growth inhibition) against PC3; type: cell-based; details: Homo sapiens, 100 μg/mL, read-out: growth inhibition percentage
# [3] = system: pharynx squamous carcinoma (FaDu); experiment: Antitumor activity (growth inhibition, cytotoxic IC50) against FaDu; type: cell-based; details: Homo sapiens; for inhibition at 100 µg/mL: 100 μg/mL, read-out: growth inhibition percentage
# [4] = system: triple-negative breast cancer (MDA-MB-468); experiment: Antitumor activity (growth inhibition, cytotoxic IC50) against MDA-MB-468; type: cell-based; details: Homo sapiens; for inhibition at 100 µg/mL: 100 μg/mL, read-out: growth inhibition percentage
# cervical cancer (HeLa) = experiment: Antitumor activity (growth inhibition, cytotoxic IC50) against HeLa; type: cell-based; details: Homo sapiens; for inhibition at 100 µg/mL: 100 μg/mL, read-out: growth inhibition percentage
# [5] = system: human oral epithelial normal cell line (OEC); experiment: Growth inhibition of normal cell line OEC; type: cell-based
# p53 = experiment: Protein expression level in MDA-MB-468 cells: p53; type: cell-based, human; details: in comparison to the control (untreated) cells
# BAX = experiment: Protein expression level in MDA-MB-468 cells: BAX; type: cell-based, human; details: in comparison to the control (untreated) cells
# Caspase 3 = experiment: Protein expression level in MDA-MB-468 cells: Caspase 3; type: cell-based, human; details: in comparison to the control (untreated) cells
# Caspase 6 = experiment: Protein expression level in MDA-MB-468 cells: Caspase 6; type: cell-based, human; details: in comparison to the control (untreated) cells
# Caspase 8 = experiment: Protein expression level in MDA-MB-468 cells: Caspase 8; type: cell-based, human; details: in comparison to the control (untreated) cells
# Caspase 9 = experiment: Protein expression level in MDA-MB-468 cells: Caspase 9; type: cell-based, human; details: in comparison to the control (untreated) cells
# BCL-2 = experiment: Protein expression level in MDA-MB-468 cells: BCL-2; type: cell-based, human; details: compared to the control (untreated) cells
# MMP2 = experiment: Protein expression level in MDA-MB-468 cells: MMP2; type: cell-based, human; details: compared to the control (untreated) cells
# MMP9 = experiment: Protein expression level in MDA-MB-468 cells: MMP9; type: cell-based, human; details: compared to the control (untreated) cells
# COX-2 = experiment: Protein expression level in MDA-MB-468 cells: COX-2; type: cell-based, human; details: compared to the control (untreated) cells
# IL-6 = experiment: Protein expression level in MDA-MB-468 cells: IL-6; type: cell-based, human; details: compared to the control (untreated) cells
# IL-1β = experiment: Protein expression level in MDA-MB-468 cells: IL-1β; type: cell-based, human; details: compared to the control (untreated) cells
# [6] = read-out: cytotoxic inhibitory concentration 50 (IC50)
smiles,measurement,setting,value
"N#C[Se]CCCN1C(=O)c2ccccc2C1=O [DS128, 2-(3-selenocyanatopropyl) isoindoline-1,3-dione]",inhibition at 100 µg/mL,[1],77.7%
same,IC50,[1]; [6],5.4 µg/mL
same,inhibition at 100 µg/mL,[2],78.5%
same,inhibition at 100 µg/mL,prostate cancer (PC3),83.2%
same,inhibition at 100 µg/mL,[3],83.8%
same,IC50,[3]; [6],5.46 µg/mL
same,inhibition at 100 µg/mL,[4],86%
same,IC50,[4]; [6],4.33 µg/mL
same,inhibition at 100 µg/mL,cervical cancer (HeLa),75.1%
same,IC50,cervical cancer (HeLa); [6],5.36 µg/mL
same,growth inhibition percentage,[5],40.02%
same,upregulation of p53 protein,p53,1.77 times
same,upregulation of BAX protein,BAX,1.68 times
same,upregulation of Caspase 3 protein,Caspase 3,1.27 times
same,upregulation of Caspase 6 protein,Caspase 6,2.46 times
same,upregulation of Caspase 8 protein,Caspase 8,6.71 times
same,upregulation of Caspase 9 protein,Caspase 9,2.00 times
same,downregulation of BCL-2 protein,BCL-2,0.44 times
same,downregulation of MMP2 protein,MMP2,0.43 times
same,downregulation of MMP9 protein,MMP9,0.47 times
same,downregulation of COX-2,COX-2,0.48 times
same,downregulation of IL-6,IL-6,0.40 times
same,downregulation of IL-1β,IL-1β,0.42 times
"COc1cccc2c1C(=O)c1c(O)c3c(c(O)c1C2=O)C[C@@](O)(C(=O)CO)C[C@@H]3O[C@H]1C[C@H](N)[C@H](O)[C@H](C)O1 [doxorubicin, reference compound]",inhibition at 100 µg/mL,[1],86.4%
same,inhibition at 100 µg/mL,[2],71%
same,inhibition at 100 µg/mL,prostate cancer (PC3),89.9%
same,inhibition at 100 µg/mL,[3],92.9%
same,inhibition at 100 µg/mL,[4],96%
same,inhibition at 100 µg/mL,cervical cancer (HeLa),92.7%
same,growth inhibition percentage,[5],57.89%

# — US12285406B1, “Method of treating cancer with a selenide” (priority 2024, dated 2025)
